According to patent publication US20230391780A1, “COMPOSITIONS AND METHODS FOR TREATING KIT- AND PDGFRA-MEDIATED DISEASES” (Blueprint Medicines Corporation, priority 2020, published 2023):
Where two headings read alike, the source gives them in different places.

Tests used:
[1] = target: PDGFRα D842V (Homo sapiens, UniProt P16234, D842V); experiment: PDGFRα D842V biochemical enzymatic activity assay (EZReader 2 mobility shift); conditions: ATP at APPKM (25 μM), 90 minutes
From the text: (§1) PDGFRα and KIT enzymatic activity was monitored using the Perkin Elmer electrophoretic mobility shift technology platform, the EZReader 2.
(§2) Within the linear, steady-state phase of the kinase enzymatic reaction, the mixed pool of phosphorylated (product) and non-phosphorylated (substrate) peptides was passed through the microfluidic system of the PerkinElmer EZ Reader 2, under an applied electric potential difference. The presence of the phosphate group on the product peptide provided a difference in mass and charge between that of the substrate peptide, resulting in a separation of the substrate and product pools in the sample (Perrin et al., Expert Opin Drug Discovery 2010, Jan. 5(1):51-63).
(§3) As the product and substrate peptide mixture passes the lasers within the instrument, these pools are detected (λex=488 nm, λem=568 nm) and resolved as separate peaks. The ratio between these peaks reflects the activity of the compound at that concentration, in that well, under those conditions.
(§4) All test articles were dissolved in 100% DMSO at a stock concentration of 10 mM. A 100×, 10-point, 4-fold serial dilution of all test compounds was created in 100% DMSO, starting at a relevant concentration, usually 1 mM. A volume of 0.130 μL of each concentration was transferred to the relevant well of a 384-well assay plate (Greiner 781 201) using a TTPLabtech Mosquito nano-liter dispenser. Using the Multidrop, the remaining constituents of the reaction were then added to the 0.130 μL of compound as follows:
The reaction was stopped by the addition of 70 μl of Stop buffer (100 mM HEPES pH 7.5, 0.015% Brij 35, 35 mM EDTA and 0.2% of Coating Reagent 3, Caliper Lifesciences). The plate was read on a Caliper EZReader 2.

[2] = Brain penetration in rats, brain to plasma ratios after 24 h IV infusion; assay type: in vivo, Sprague-Dawley rats; conditions: for Kp uu at 24 h: Sprague-Dawley, brain / plasma, intravenous, 1 mg/kg/hr; for Kp uu at 24 h / Rat Kp: Table 3B; for Rat Kp: methods as for compound 4
From the text: To understand the brain penetration, brain to plasma ratios of the compounds were obtained in Sprague-Dawley (SD) rats. In vivo equilibrium distribution between blood and brain in preclinical species such as rats is a commonly used parameter to evaluate brain penetration. Kp,brain is the ratio of concentrations in brain and blood (Cbrain/Cplasma). The compound's passive diffusion characteristics, its affinity for membrane transporters at the blood-brain barrier (BBB), and the relative drug binding affinity differences between the plasma proteins and brain tissue influence the Kp,brain.
The animals received IV infusion of 1 mg/kg/hr of the compound over 24 hours via jugular vein cannulation. At 24 hours, blood was collected via tail vein bleeding or cardiac puncture (under anesthesia) and centrifuged to obtain plasma samples. Brain tissues were collected and homogenized with phosphate-buffered saline (PBS). The concentrations of the compounds were obtained in the plasma and brain homogenates by LC-MS/MS analysis.

[3] = target: KIT D816V (Homo sapiens, UniProt P10721, D816V); experiment: KIT D816V biochemical enzymatic activity assay (EZReader 2 mobility shift); conditions: ATP at APPKM (20 μM), 60 minutes
Chain of KIT D816V (P10721 26-976 D816V): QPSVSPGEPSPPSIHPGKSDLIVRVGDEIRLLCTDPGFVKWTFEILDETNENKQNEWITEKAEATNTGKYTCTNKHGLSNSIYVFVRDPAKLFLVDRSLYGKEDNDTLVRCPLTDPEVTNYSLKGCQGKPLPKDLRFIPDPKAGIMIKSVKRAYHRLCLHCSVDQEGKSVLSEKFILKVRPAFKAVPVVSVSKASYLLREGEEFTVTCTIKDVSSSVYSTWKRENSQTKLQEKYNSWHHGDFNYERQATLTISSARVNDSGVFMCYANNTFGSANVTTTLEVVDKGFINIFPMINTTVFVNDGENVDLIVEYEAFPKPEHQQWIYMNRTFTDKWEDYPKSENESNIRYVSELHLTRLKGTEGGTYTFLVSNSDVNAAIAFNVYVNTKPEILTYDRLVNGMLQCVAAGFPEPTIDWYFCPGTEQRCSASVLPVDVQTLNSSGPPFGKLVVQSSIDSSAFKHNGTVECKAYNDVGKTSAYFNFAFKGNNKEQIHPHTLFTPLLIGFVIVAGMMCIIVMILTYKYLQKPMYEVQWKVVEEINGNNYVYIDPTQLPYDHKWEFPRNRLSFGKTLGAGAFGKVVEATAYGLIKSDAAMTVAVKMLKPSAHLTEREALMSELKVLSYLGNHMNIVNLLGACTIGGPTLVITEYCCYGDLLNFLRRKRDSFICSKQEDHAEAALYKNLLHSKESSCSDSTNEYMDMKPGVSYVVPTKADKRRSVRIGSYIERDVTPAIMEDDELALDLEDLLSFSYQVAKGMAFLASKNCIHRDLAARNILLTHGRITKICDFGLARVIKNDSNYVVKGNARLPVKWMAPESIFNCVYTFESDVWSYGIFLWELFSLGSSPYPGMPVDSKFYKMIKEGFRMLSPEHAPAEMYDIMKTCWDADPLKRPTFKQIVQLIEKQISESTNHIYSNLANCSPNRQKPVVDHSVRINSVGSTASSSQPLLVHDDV
From the text: as §1, §2, §3, §4
The reaction was stopped by the addition of 70 μl of Stop buffer (100 mM HEPES pH 7.5, Brij 35, 35 mM EDTA and 0.2% of Coating Reagent 3, Caliper Lifesciences). The plate was read on a Caliper EZReader 2.

[4] = target: T1, KIT D816V (HMC1.2 cells, KIT V560G and D816V) (Homo sapiens, UniProt P10721, D816V/V560G); experiment: HMC1.2 autophosphorylation assay (phospho-Y719 KIT AlphaLISA); assay type: cell-based; conditions: 90 minutes, KIT autophosphorylation at tyrosine 719, read-out: KIT (P-KIT HMC1.2 (nM))
T1 construct: endogenous in cells; host or cells: HMC1.2 (mast cell leukemia cell line)
T1 sequence (P10721 26-976 V560G/D816V): as the sequence (P10721 26-976 D816V) above, with V535G counted along it
Protocol: 10,000 HMC1.2 cells were incubated in 22 μL culture media (phenol-red free IMDM, no serum) in each well of a 384-well plate and serum starved overnight in a tissue culture incubator (5% CO2, 37° C.). […] 10 μL of […] streptavidin donor beads (Perkin Elmer) were added to each well, blocked from light with solid black adhesive and shaken at 300 rpm at room temperature for 2 hours. Fluorescence signal was obtained on Envision (Perkin Elmer) by AlphaScreen 384 well HTS protocol.

[5] = target: T2, wt KIT kinase (Homo sapiens, UniProt P10721); experiment: Wild-type KIT Kd determination (phage-tagged kinase competition binding, qPCR)
T2 construct: made in house; host or cells: E. coli derived from BL21, infected with T7 phage
T2 sequence (P10721 26-976): as the sequence (P10721 26-976 D816V) above, with V791D counted along it
Protocol: Kd Determinations. For most assays, including wt KIT kinase, kinase-tagged T7 phage strains were prepared in an E. coli host derived from the BL21 strain. E. coli were grown to log-phase and infected with T7 phage and incubated with shaking at 32° C. until lysis. […] The liganded beads were blocked with excess biotin and washed with blocking buffer (SeaBlock (Pierce), 1% BSA, 0.05% Tween 20, 1 mM DTT) to remove unbound ligand and to reduce non-specific binding. […] Test compounds were prepared as 111×stocks in 100% DMSO. Kds were determined using an 11-point 3-fold compound dilution series with three DMSO control points. […] The compounds were then diluted directly into the assays such that the final concentration of DMSO was 0.9%. All reactions were performed in polypropylene 384-well plate. Each was a final volume of 0.02 ml. […] The kinase concentration in the eluates was measured by qPCR.
Binding Constants (Kds). Binding constants (Kds) were calculated with a standard dose-response curve using the Hill equation: Response=Background+Signal−Background 1+(KdHill Slope/DoseHill Slope). The Hill Slope was set to −1. Curves were fitted using a non-linear least square fit with the Levenberg-Marquardt algorithm.

[6] = Pharmacokinetics after single intravenous and oral administration in rats; assay type: in vivo, Sprague-Dawley rats; conditions: iv 1 mg/kg, Clu=Cl/fu,plasma
Protocol: Assessment of pharmacokinetics following single intravenous and oral administration in rats: 3 Sprague-Dawley rats were employed for each compound for each route of administration (iv or oral). For iv administration, 1 mg/kg (dose volume=5 mL/kg) of each compound was administered by intravenous route via […] injection; whereas for oral route, 2.5 mg/kg (dose volume=5 mL/kg) was administered via oral gavage. Blood samples were obtained via tail vein at predose, 0.083, 0.25, 0.5, 1, 2, 4 and 8 hr. In addition, blood samples were also obtained at 24 hr via cardiac puncture (under anesthesia with Isoflurane) for terminal bleeding. All the blood samples were analyzed for the drug concentrations via LC/MS-MS. Pharmacokinetic parameters such as Cmax, Tmax, AUClast, AUCinf, MRTlast, MRTinf, T1/2, Vss and CL were obtained by non-compartmental analysis (NCA).

[7] = rat, fu,brain from brain slice, read-out: Rat Kp, uu Brain slice

Chain of PDGFRα D842V (P16234 24-1089 D842V): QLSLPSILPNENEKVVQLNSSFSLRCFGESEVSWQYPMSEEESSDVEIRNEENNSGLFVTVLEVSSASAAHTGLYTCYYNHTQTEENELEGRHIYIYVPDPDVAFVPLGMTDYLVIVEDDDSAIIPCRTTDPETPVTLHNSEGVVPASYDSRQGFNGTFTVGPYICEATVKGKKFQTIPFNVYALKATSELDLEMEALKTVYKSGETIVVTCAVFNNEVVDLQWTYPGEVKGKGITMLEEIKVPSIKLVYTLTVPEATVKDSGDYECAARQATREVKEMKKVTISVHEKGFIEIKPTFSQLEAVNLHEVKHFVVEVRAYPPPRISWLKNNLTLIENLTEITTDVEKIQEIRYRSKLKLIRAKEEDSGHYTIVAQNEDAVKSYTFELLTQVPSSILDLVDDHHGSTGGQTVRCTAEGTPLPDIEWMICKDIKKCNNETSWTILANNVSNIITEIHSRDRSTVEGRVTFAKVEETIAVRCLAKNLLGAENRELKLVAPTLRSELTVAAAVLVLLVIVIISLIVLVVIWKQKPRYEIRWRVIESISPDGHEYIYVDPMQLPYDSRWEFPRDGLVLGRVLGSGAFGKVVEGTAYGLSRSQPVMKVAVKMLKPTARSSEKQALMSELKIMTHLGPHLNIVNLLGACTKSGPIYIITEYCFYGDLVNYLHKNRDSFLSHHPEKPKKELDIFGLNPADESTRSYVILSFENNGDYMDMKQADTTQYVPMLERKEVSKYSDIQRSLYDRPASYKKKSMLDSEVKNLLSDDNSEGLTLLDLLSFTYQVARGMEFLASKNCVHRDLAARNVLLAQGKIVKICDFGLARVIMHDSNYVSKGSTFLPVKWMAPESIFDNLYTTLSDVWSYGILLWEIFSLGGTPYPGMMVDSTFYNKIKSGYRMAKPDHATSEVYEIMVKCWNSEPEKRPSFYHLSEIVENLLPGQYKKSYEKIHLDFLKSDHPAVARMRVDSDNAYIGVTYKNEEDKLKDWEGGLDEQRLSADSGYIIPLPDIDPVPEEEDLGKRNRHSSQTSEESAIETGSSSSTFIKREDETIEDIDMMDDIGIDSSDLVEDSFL

## CCn1cc(-c2cc3c(N4CCN(c5ncc([C@@](C)(N)c6ccc(F)cc6)cn5)CC4)ncnn3c2)cn1 [Comparator A, reference compound]
[1]
  IC50: ≤ 0.3 nM
[2]; rat, total mean brain concentration x fu,brain (homogenate)
  Unbound concentration, Brain: 1.7
[2]; rat, total mean plasma concentration x fu,p
  Unbound concentration, Plasma: 2.02
[3]
  IC50: ≤ 0.3 nM

## C[C@H](CO)n1cc(-c2cc3c(N4CCN(c5ncc([C@@](C)(N)c6ccc(F)cc6)cn5)CC4)ncnn3c2)cn1 [Compound 5, (R)-2-(4-(4-(4-(5-((S)-1-Amino-1-(4-fluorophenyl)ethyl)pyrimidin-2-yl)piperazin-1-yl)pyrrolo[2,1-f][1,2,4]triazin-6-yl)-1H-pyrazol-1-yl)propan-1-ol]
[1]
  IC50: ≤ 0.3 nM

## C[C@@H](O)Cn1cc(-c2cc3c(N4CCN(c5ncc([C@@](C)(N)c6ccc(F)cc6)cn5)CC4)ncnn3c2)cn1 [Compound 3]
[1]
  IC50: ≤ 0.3 nM

## CC(C)(O)Cn1cc(-c2cc3c(N4CCN(c5ncc([C@@](C)(N)c6ccc(F)cc6)cn5)CC4)ncnn3c2)cn1 [Compound 1, (S)-1-(4-(4-(4-(5-(1-Amino-1-(4-fluorophenyl)ethyl)pyrimidin-2-yl)piperazin-1-yl)pyrrolo[2,1-f][1,2,4]triazin-6-yl)-1H-pyrazol-1-yl)-2-methylpropan-2-ol]
[1]
  IC50: ≤ 0.3 nM

## C[C@](N)(c1ccc(F)cc1)c1cnc(N2CCN(c3ncnn4cc(-c5cnn([C@@H]6CC[C@H]6O)c5)cc34)CC2)nc1 (single isomer, unassigned) [Compound 11]
[4]
  IC50: < 4.5 nM
[1]
  IC50: ≤ 0.3 nM
[2]; rat, fu,brain from brain homogenate, read-out: Rat Kp, uu Homogenate
  Kp uu at 24 h: 0.06
[2]; [7]
  Kp uu at 24 h: 0.03
[2]
  Rat Kp: 0.13
[3]
  IC50: ≤ 0.3 nM
[5]
  Kd: < 10 nM

## C[C@](N)(c1ccc(F)cc1)c1cnc(N2CCN(c3ncnn4cc(-c5cnn(CCO)c5)cc34)CC2)nc1 [Compound 4, (S)-2-(4-(4-(4-(5-(1-Amino-1-(4-fluorophenyl)ethyl)pyrimidin-2-yl)piperazin-1-yl)pyrrolo[2,1-f][1,2,4]triazin-6-yl)-1H-pyrazol-1-yl)ethanol]
[1]
  IC50: ≤ 0.3 nM
[6]
  Rat IV PK (Clu) (mL/min/kg), unbound clearance: (582) mL/min/kg

## C[C@](N)(c1ccc(F)cc1)c1cnc(N2CCN(c3ncnn4cc(-c5cnn(CC6(O)CC6)c5)cc34)CC2)nc1 [Compound 8, (S)-1-((4-(4-(4-(5-(1-Amino-1-(4-fluorophenyl)ethyl)pyrimidin-2-yl)piperazin-1-yl)pyrrolo[2,1-f][1,2,4]triazin-6-yl)-1H-pyrazol-1-yl)methyl)cyclopropan-1-ol]
[1]
  IC50: ≤ 0.3 nM

## C[C@@H](CO)n1cc(-c2cc3c(N4CCN(c5ncc([C@@](C)(N)c6ccc(F)cc6)cn5)CC4)ncnn3c2)cn1 [Compound 6, (S)-2-(4-(4-(4-(5-((S)-1-amino-1-(4-fluorophenyl)ethyl)pyrimidin-2-yl)piperazin-1-yl)pyrrolo[2,1-f][1,2,4]triazin-6-yl)-1H-pyrazol-1-yl)propan-1-ol]
[1]
  IC50: ≤ 0.3 nM

## C[C@](N)(c1ccc(F)cc1)c1cnc(N2CCN(c3ncnn4cc(-c5cnn([C@H]6CC[C@@H]6O)c5)cc34)CC2)nc1 (single isomer, unassigned) [Compound 10]
[4]
  IC50: < 4.5 nM
[1]
  IC50: ≤ 0.3 nM
[2]; [7]
  Kp uu at 24 h: 0.07
[2]
  Rat Kp: 0.18
[3]
  IC50: 0.31 to 1 nM
[5]
  Kd: < 10 nM

## C[C@](N)(c1ccc(F)cc1)c1cnc(N2CCN(c3ncnn4cc(-c5cnn(C6(CO)CC6)c5)cc34)CC2)nc1 [Compound 9, (S)-(1-(4-(4-(4-(5-(1-Amino-1-(4-fluorophenyl)ethyl)pyrimidin-2-yl)piperazin-1-yl)pyrrolo[2,1-f][1,2,4]triazin-6-yl)-1H-pyrazol-1-yl)cyclopropyl)methanol]
[1]
  IC50: ≤ 0.3 nM

## CC(C)(CO)n1cc(-c2cc3c(N4CCN(c5ncc([C@@](C)(N)c6ccc(F)cc6)cn5)CC4)ncnn3c2)cn1 [Compound 2, (S)-2-(4-(4-(4-(5-(1-amino-1-(4-fluorophenyl)ethyl)pyrimidin-2-yl)piperazin-1-yl)pyrrolo[2,1-f][1,2,4]triazin-6-yl)-1H-pyrazol-1-yl)-2-methylpropan-1-ol]
[1]
  IC50: ≤ 0.3 nM

## C[C@H](O)Cn1cc(-c2cc3c(N4CCN(c5ncc([C@@](C)(N)c6ccc(F)cc6)cn5)CC4)ncnn3c2)cn1 [Compound 7]
[1]
  IC50: ≤ 0.3 nM
